Experimental data published in PubChem BioAssay (NCI).
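Test compounds were applied to cells in 96-well plates for 48 hours at 5 doses. GI50 is the concentration that inhibits growth by half. TGI: concentration producing complete growth inhibition.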

How the values were obtained:
Assay in all cases: NCI-60 cell line screen, 48 h
SK-MEL-28 melanoma = test system: SK-MEL-28 melanoma
MOLT-4 leukemia = test system: MOLT-4 leukemia
HCC-2998 colon = test system: HCC-2998 colon
SK-MEL-5 melanoma = test system: SK-MEL-5 melanoma
OVCAR-5 ovarian = test system: OVCAR-5 ovarian
M14 melanoma = test system: M14 melanoma
786-0 renal = test system: 786-0 renal
SF-539 CNS = test system: SF-539 CNS
U251 CNS = test system: U251 CNS
T-47D breast = test system: T-47D breast

SMILES	TGI (SK-MEL-28 melanoma) [µM]	TGI (MOLT-4 leukemia) [µM]	TGI (HCC-2998 colon) [µM]	TGI (SK-MEL-5 melanoma) [µM]	TGI (OVCAR-5 ovarian) [µM]	TGI (M14 melanoma) [µM]	TGI (786-0 renal) [µM]	TGI (SF-539 CNS) [µM]	TGI (U251 CNS) [µM]	GI50 (T-47D breast) [µM]	TGI (T-47D breast) [µM]	GI50 (SK-MEL-28 melanoma) [µM]	GI50 (MOLT-4 leukemia) [µM]	GI50 (SK-MEL-5 melanoma) [µM]	GI50 (M14 melanoma) [µM]	GI50 (786-0 renal) [µM]	GI50 (SF-539 CNS) [µM]	GI50 (U251 CNS) [µM]	GI50 (OVCAR-5 ovarian) [µM]	GI50 (HCC-2998 colon) [µM]
CC(=O)Nc1ccc(/C=c2\sc3nnc(/C=C/c4ccccc4)n3c2=O)cc1	> 50	> 50	> 50	> 50	> 50	> 50	> 50	> 50	> 50	–	–	–	–	–	–	–	–	–	–	–
CC1CC2C3CC(F)C4=CC(=O)C=CC4(C)C3(F)C(O)CC2(C)C1(O)C(=O)CO (stereo not given)	> 100	> 100	> 100	> 100	–	> 100	> 100	> 100	> 100	–	–	–	–	–	–	–	–	–	–	–
O=C1CCC(=O)c2cc(Br)ccc2N1	> 100	> 100	> 100	> 100	> 100	> 100	> 100	> 100	> 100	–	–	–	–	–	–	–	–	–	–	–
Cc1ccc(NC(=O)SCCC(=O)O)cc1NC(=O)SCCC(=O)O	> 100	> 100	> 100	–	> 100	> 100	> 100	> 100	> 100	–	–	–	–	–	–	–	–	–	–	–
COc1cc2c(cc1OC)-c1c(cc(OC)c(OC)c1OC)C2=O	> 100	> 100	> 100	> 100	> 100	> 100	> 100	> 100	> 100	–	–	–	–	–	–	–	–	–	–	–
Oc1cccc(C2SCc3nc4ccccc4n32)c1 (stereo not given)	> 100	> 100	> 100	38.2	> 100	–	> 100	> 100	> 100	–	–	–	–	–	–	–	–	–	–	–
O=C(O)/C(O)=C1/C=C(c2ccccc2)c2ccccc21	–	43.8	49.8	34	72.2	45.3	78	82.3	35.9	–	–	–	–	–	–	–	–	–	–	–
O=C(Nc1cc(C(F)(F)F)ccc1Cl)C(=O)C(C(=O)c1ccc2ccccc2c1)C1OC(=O)c2ccccc21 (stereo not given)	13.1	9.16	22.7	22.5	24.5	25	17.7	6.94	14.3	–	–	–	–	–	–	–	–	–	–	–
CNC(=O)OCc1nc(S(C)=O)n(C)c1COC(=O)NC (stereo not given)	> 100	> 100	> 100	> 46.4	> 100	> 48.3	> 100	> 100	> 100	–	–	–	–	–	–	–	–	–	–	–
COc1ccc2cc(C(=O)/C=C/c3ccc(OC)c(OC)c3)ccc2c1	98.9	> 100	–	16.6	–	25.7	35.4	16.3	58.8	43.4	> 100	33.7	5.97	2.82	11.2	18.8	3.77	11.8	–	–
CSc1s[s+]c(SC)c1[O-]	34.2	48.2	> 100	> 100	> 100	75.8	30.3	43.2	86.5	–	–	–	–	–	–	–	–	–	–	–
N/C(=N\C(=S)N1CCCCC1)N1CCCCC1	> 100	> 100	> 100	> 100	> 100	> 100	> 100	> 100	> 100	–	–	–	–	–	–	–	–	–	–	–
COc1ccc(OC)c(-c2nc3sccn3c2/C=C2/C(=O)Nc3ccccc32)c1	25.2	18.4	–	0.997	12.8	1.41	18.6	–	15	7.82	> 49.4	1.96	0.0472	–	0.323	0.273	–	1.06	0.437	–
COc1ccc2[nH]cc(/C=C3\C(=O)Nc4ccccc43)c2c1	42	7.4	–	15.2	42	14.2	30.2	18.1	21.2	4.91	30.3	10.5	2.33	3.43	2.99	11.9	5.43	6.12	11.6	–
O=C1OC(=O)C2C3CCC(O3)C12 (stereo not given)	> 100	> 100	> 100	> 100	> 100	> 100	> 100	> 100	> 100	–	–	–	–	–	–	–	–	–	–	–
C=C(CO)CC(O)c1ccccc1 (stereo not given)	> 100	> 100	> 100	> 100	> 100	> 100	> 100	> 100	> 100	–	–	–	–	–	–	–	–	–	–	–
CSC(=S)NN=C1CCCCC1	> 100	40.8	–	37.7	–	38.7	> 100	67.7	> 100	–	> 100	–	–	–	–	–	–	–	–	–
C/C=C(/C)C(=O)OC1C=C(CO)C(=O)C(OC(=O)/C(C)=C\C)C1C(C)C (stereo not given)	2.8	3.89	3.27	2.66	2.5	2.26	2.63	2.69	2.03	–	–	1.39	0.335	1.33	0.795	1.08	1.38	0.708	0.976	1.71
COC1OC(C)C(OC(=O)C(C)(C)C)C(C)(O)C1O (stereo not given)	> 100	> 100	> 100	> 100	> 100	> 100	> 100	> 100	> 100	–	–	–	–	–	–	–	–	–	–	–
O=C(C#Cc1c[nH]c(=O)[nH]c1=O)c1ccccc1	22.9	7.96	32.4	25.2	33.1	18	24.6	14.5	26.9	–	–	–	–	–	–	–	–	–	–	–
CN(C)CC1(C)CC/C(=C\c2ccc3c(c2)OCO3)C1=O (stereo not given)	> 100	> 100	> 100	> 100	> 100	> 100	> 100	> 100	> 100	–	–	–	–	–	–	–	–	–	–	–
